Data reported in patent publication US6916933B2, “4-pyridinyl-n-acyl-l-phenylalanines” (Hoffman-La Roche Inc., priority 1999, dated 2005).

These compounds were tested against T1, alpha4-beta7 on RPMI 8866 cells binding to MadCAM (Homo sapiens, UniProt P13612+P26010) (assay: Alpha4-Beta7 Assay (MadCAM/RPMI 8866 cell adhesion)). Details: calcein labeled RPMI 8866 cells, MadCAM coated plates.
T1 construct: endogenous in cells; host or cells: RPMI 8866 cells
T1 sequence (P13612 34-1032): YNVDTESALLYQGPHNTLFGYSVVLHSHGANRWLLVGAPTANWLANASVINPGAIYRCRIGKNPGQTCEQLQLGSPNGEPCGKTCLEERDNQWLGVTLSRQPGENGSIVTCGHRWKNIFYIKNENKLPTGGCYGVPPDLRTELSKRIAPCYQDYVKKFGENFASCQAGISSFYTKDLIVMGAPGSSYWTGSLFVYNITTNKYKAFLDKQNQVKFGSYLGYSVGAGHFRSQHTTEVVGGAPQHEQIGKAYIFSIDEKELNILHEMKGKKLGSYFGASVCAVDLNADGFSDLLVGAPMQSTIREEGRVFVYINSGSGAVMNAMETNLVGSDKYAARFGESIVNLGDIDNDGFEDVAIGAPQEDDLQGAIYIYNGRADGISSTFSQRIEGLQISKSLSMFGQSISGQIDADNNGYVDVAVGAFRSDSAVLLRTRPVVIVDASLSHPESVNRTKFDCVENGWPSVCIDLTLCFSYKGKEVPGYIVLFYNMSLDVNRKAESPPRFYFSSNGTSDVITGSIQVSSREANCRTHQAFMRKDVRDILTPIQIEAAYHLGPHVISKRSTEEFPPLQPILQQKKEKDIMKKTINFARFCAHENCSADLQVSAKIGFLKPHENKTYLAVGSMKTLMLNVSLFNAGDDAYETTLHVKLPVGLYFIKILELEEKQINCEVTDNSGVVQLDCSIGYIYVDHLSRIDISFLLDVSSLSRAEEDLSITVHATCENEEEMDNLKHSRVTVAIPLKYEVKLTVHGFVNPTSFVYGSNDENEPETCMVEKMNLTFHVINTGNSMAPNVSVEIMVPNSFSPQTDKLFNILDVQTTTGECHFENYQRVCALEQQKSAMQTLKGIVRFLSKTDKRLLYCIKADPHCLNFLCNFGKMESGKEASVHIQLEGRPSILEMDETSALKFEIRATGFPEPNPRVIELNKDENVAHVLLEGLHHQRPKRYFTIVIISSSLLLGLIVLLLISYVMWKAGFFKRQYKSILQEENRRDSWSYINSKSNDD
T1 sequence (P26010 20-798): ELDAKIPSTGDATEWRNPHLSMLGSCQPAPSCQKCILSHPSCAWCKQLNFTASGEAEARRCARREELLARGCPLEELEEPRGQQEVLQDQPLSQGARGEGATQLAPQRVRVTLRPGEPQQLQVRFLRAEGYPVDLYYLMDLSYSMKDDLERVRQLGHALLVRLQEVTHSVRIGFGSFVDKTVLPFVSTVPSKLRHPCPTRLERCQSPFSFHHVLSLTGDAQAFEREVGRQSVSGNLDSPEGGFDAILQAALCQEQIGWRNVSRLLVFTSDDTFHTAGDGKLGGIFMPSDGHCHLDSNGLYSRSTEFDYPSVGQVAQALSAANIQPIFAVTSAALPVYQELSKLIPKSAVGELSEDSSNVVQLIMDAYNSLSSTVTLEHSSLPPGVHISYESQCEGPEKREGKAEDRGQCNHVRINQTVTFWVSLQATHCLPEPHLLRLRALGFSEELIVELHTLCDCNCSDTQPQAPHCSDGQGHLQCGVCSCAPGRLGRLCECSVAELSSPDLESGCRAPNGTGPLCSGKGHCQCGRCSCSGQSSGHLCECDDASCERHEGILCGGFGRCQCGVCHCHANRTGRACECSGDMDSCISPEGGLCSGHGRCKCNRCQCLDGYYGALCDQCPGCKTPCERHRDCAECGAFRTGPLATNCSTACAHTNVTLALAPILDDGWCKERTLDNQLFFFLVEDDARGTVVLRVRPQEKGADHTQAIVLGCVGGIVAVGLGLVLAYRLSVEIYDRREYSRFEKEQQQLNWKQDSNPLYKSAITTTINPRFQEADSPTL
Type: cell-based
Description: Alpha4-Beta7 Assay Protocol
Two weeks to one day prior to the assay, Nunc high-binding F96 Maxisorp immuno plates, #442404 or #439454, were coated with 25 ng/well (0.25 μg/ml) MadCAM in a volume of 100 μl/well. The plates were covered with sealer and wrapped in saran wrap followed by incubation in the refrigerator for at least 24 hours. The coating buffer employed was: 10 mM carbonate/bicarbonate buffer made up from: 0.8 g/L sodium carbonate and 1.55 g/L sodium bicarbonate adjusted to pH 9.6 with 1 N HCl.
Assay buffers consisted of the following: • Wash Buffer: 0.05% Tween 20 in PBS • Blocking Buffer: 1% Nonfat Dry Milk in PBS • Labeling Buffer: PBS • Cell Buffer: RPMI 1640 medium (no additives) • Binding Buffer: 1.5 mM CaCl2 • 0.5 mM MnCl2 • 50 mM TRIS-HCl; add NaOH dropwise to pH 7.5 • Bring to volume in H2O • Adjust to pH 7.5 • Dilution Buffer: 4% DMSO in Binding Buffer
Plates were washed 2× with wash buffer and then blocked at room temperature for at least 1 hour with Blocking Buffer. Sealed plates were sometimes blocked overnight in the refrigerator. Plates were then washed with PBS and hand blotted dry. Remaining liquid was aspirated from the wells.
Sufficient RPMI 8866 cells were removed from stock for assay (2×10^6 cells/ml×10 ml/plate×number of plates) and placed in a centrifuge tube. The tubes were filled to volume with PBS and were spun at 200×G for 8 minutes. The buffer was poured off and the cells were resuspended to 10×10^6/ml in PBS and a stock solution of calcein in DMSO (5 mg/mL) was added at 5 μl/ml of cell suspension. The suspension was incubated for 30 minutes at 37° C. in dark. The cells were then washed with PBS. The PBS was poured off and the cells resuspended in cell buffer at a concentration of 2×10^6 cells/mL for plating in the assay.
Stock solution of test compounds at 25× first dilution desired in 100% DMSO were prepared. First dilutions for the standard, as well as test compounds, were 1:25 into straight Binding Buffer, while the remaining serial dilutions were into Dilution Buffer (Binding Buffer/4% DMSO). Stock concentrations and dilutions of compounds for screening were determined by anticipated activity.
For the assay, 129 μl Binding Buffer was plated into first row of wells and 100 μl Dilution Buffer was plated into remaining wells. A 5.4 μl aliquot of each compound was pipetted into appropriate, labeled wells, in triplicate. The compounds were next diluted down the plate (34 μl+100 μl=>4-fold dilution). For controls, 100 μl of Dilution Buffer+100 μl Cell Buffer were plated into the nonspecific background wells (no cells, no compound) and 100 μl Dilution Buffer+100 μl cells were plated into the total binding wells (no compound=100% binding). Labeled cells at 2×10^6 cells/ml, 100μl/well (=2×10^5 cells/well) were added to each well containing compound. The plates were sealed and incubated in the dark for 45 minutes at room temperature. Following incubation, unbound cells were removed by adding 150 μl PBS/well. The plates were inverted, blotted onto paper towels and washed by gently adding 200 μl PBS to wells and blotting again. Remaining buffer was carefully aspirated from the wells. A final 100 μl PBS was added to each well.
The plates were then read for fluorescence intensity on a Cytofluor 2300 (Millipore) fluorecence measurement system (excitation=485 nm, emission=530 nm). IC50s of each compound were determined by linear regression analysis.

Row | SMILES | IC50 [µM]
1 | Cc1cccc(Cl)c1C(=O)N[C@@H](Cc1ccc(-c2cccn(C)c2=O)cc1)C(=O)O [Example 30, N-[(2-chloro-6-methylphenyl)carbonyl]-4-(1-methyl-2-oxo-3-pyridinyl)-L-phenylalanine] | < 10
2 | Cc1ccn(C)c(=O)c1-c1ccc(C[C@H](NC(=O)c2c(Cl)cccc2Cl)C(=O)O)cc1 [Example 31, N-[(2,6-dichlorophenyl)carbonyl]-4-(1,4-dimethyl-2-oxo-3-pyridinyl)-L-phenylalanine] | < 10
3 | Cc1cccc(Cl)c1C(=O)N[C@@H](Cc1ccc(-c2c(C)ccn(C)c2=O)cc1)C(=O)O [Example 32, N-[(2-chloro-6-methylphenyl)carbonyl]-4-(1,4-dimethyl-2-oxo-3-pyridinyl)-L-phenylalanine] | < 10
4 | Cc1cc(C(F)(F)F)c(-c2ccc(C[C@H](NC(=O)c3c(Cl)cccc3Cl)C(=O)O)cc2)c(=O)n1C [Example 33, N-[(2,6-dichlorophenyl)carbonyl]-4-[1,6-dimethyl-4-(trifluoromethyl)-2-oxo-3-pyridinyl]-L-phenylalanine] | < 0.1
5 | CCc1cccc(C)c1C(=O)N[C@@H](Cc1ccc(-c2c(C(F)(F)F)cc(C)n(C)c2=O)cc1)C(=O)O [Example 34, N-[(2-ethyl-6-methylphenyl)carbonyl]-4-[1,6-dimethyl-4-(trifluoromethyl)-2-oxo-3-pyridinyl]-L-phenylalanine] | < 10
6 | Cc1cccc(C(C)C)c1C(=O)N[C@@H](Cc1ccc(-c2c(C(F)(F)F)cc(C)n(C)c2=O)cc1)C(=O)O [Example 35, N-[(2-(1-methylethyl)-6-methylphenyl)carbonyl]-4-[1,6-dimethyl-4-(trifluoromethyl)-2-oxo-3-pyridinyl]-L-phenylalanine] | < 5
7 | Cc1cccc(Cl)c1C(=O)N[C@@H](Cc1ccc(-c2c(C(F)(F)F)cc(C)n(C)c2=O)cc1)C(=O)O [Example 36, N-[(2-chloro-6-methylphenyl)carbonyl]-4-[1,6-dimethyl-4-(trifluoromethyl)-2-oxo-3-pyridinyl]-L-phenylalanine] | < 10
8 | COCCC1(C(=O)N[C@@H](Cc2ccc(-c3c(C(F)(F)F)cc(C)n(C)c3=O)cc2)C(=O)O)CCCC1 [Example 37, N-[[1-(2-methoxyethyl)cyclopentyl]carbonyl]-4-[1,6-dimethyl-4-(trifluoromethyl)-2-oxo-3-pyridinyl]-L-phenylalanine] | < 10
